From patent US20250057944A1, “OLIGOSACCHARIDE COMPLEXES AND USES” (BioNTech SE, priority 2021, published 2025)

Tests used:
hPBMCs = test: Cytokine secretion by hPBMCs 24 h after transfection with modRNA formulations (MSD kit); format: cell-based, human; details: oligosaccharide:Tween40 1:0.5, modRNA, N/P 6, 24 hours (FIGS. 19A-D)
Description: All groups received modRNA formulated at N/P 6. Formulations were complexed with RNA in MBG Buffer (final concentration 5% w/v Glucose, 10 mM MES, pH 6.1), at RNA final concentration of 0.15 mg/ml and the mixing ratio of the RNA containing solution and the oligosaccharide+Tween40 containing solution was 9:1 (v:v) for all the cases. IL-6, TNF-α, IL-1β and IFN-γ secretion after 24 hours of transfection of […] hPMBCs was evaluated in the supernatants using MSD Kit Standard Protocol.

BALB/c mice [1] = test: Intramuscular vaccination with HA modRNA formulated with oligosaccharide+Tween40 (Example 10); details: mouse, in vivo
BALB/c mice [2] = details: mouse, in vivo
BALB/c mice [3] = details: mouse, in vivo; remark: listed apart in the source
C57BL/6 IFNAR −/− mice = format: in vivo
[4] = Hydrodynamic diameter of complexes by dynamic light scattering; format: physicochemical
Description: Sizes of complexes described in the present examples were analyzed by DynaPro PlateReader II, using dynamic light scattering (DLS) for calculating the hydrodynamic diameter of complexes. […] Ten acquisitions are recorded per well, each lasting 5 seconds.

BALB/c mice [5] = test: In-vivo luciferase expression in applied tissue after i.m. application of RNA complexes; details: N/P 6 (FIG. 7B)

CCCCCCCCCC(=O)OC1C(OC(=O)CCCCCCCCC)[C@H](OC(=O)CCCCCCCCC)C(CSCCNC(=S)NCCN2CCC(C(N)=O)CC2)O[C@@H]1O[C@H]1OC(CSCCNC(=S)NCCN2CCC(C(N)=O)CC2)[C@@H](OC(=O)CCCCCCCCC)C(OC(=O)CCCCCCCCC)C1OC(=O)CCCCCCCCC (stereo partly drawn) [JLF244]
Level of secretion of pro-inflammatory cytokines, IL-6, TNF-α, IL-1β and IFN-γ (hPBMCs): highest level of secretion
IgG concentration against HA (BALB/c mice [1]): highest IgG concentration

CCCCCCCCCC(=O)OC[C@@]1(O[C@H]2OC(CSCCNC(=S)NCCN3CCOCC3)[C@@H](OC(=O)CCCCCCCCC)[C@H](OC(=O)CCCCCCCCC)C2OC(=O)CCCCCCCCC)O[C@H](CSCCNC(=S)NCCN2CCOCC2)[C@@H](OC(=O)CCCCCCCCC)[C@@H]1OC(=O)CCCCCCCCC (stereo partly drawn) [JLF218]
IgG concentration against HA (BALB/c mice [1]): then by JLF99 and JLF218

CCCCCCCCCC(=O)OC1C(OC(=O)CCCCCCCCC)[C@H](OC(=O)CCCCCCCCC)C(CSCCNC(=S)NCCN2CCOCC2)O[C@@H]1O[C@H]1OC(CSCCNC(=S)NCCN2CCOCC2)[C@@H](OC(=O)CCCCCCCCC)C(OC(=O)CCCCCCCCC)C1OC(=O)CCCCCCCCC (stereo partly drawn) [JLF99]
CD4-CD8 response versus LNP benchmark (BALB/c mice [2]): no significant difference
IgG against HA-antigen over the course of the experiment versus LNP benchmark (BALB/c mice [2]): no apparent differences
Serological concentration of IgG at the end-point (day 49) (BALB/c mice [2]): comparable to the LNP group
Delivery of RNAs and immune response (BALB/c mice [3]): functionally delivered all the RNAs upon i.m injection and elicited a strong immune response
Immunological response with CCHFV-Gc antigen (C57BL/6 IFNAR −/− mice; JLF99+Tween40 1:0.5, 1.3 μg saRNA i.m., prime/boost d0/d28, N/P6): strong immunological response
Antibody level versus LNP (C57BL/6 IFNAR −/− mice; mouse, in vivo): lower than the LNP
Antibody levels versus LNP benchmark (C57BL/6 IFNAR −/− mice; mouse, in vivo): identical to the ones achieved by the LNP benchmark
T-cell responses against Gc-peptides (C57BL/6 IFNAR −/− mice; mouse, in vivo): equally strong
Hydrodynamic diameter ([4]; saRNA, N/P 6 (FIG. 5A)): about 150 nm
modRNA expression (bioluminescence normalized to the JLF41-modRNA group) (BALB/c mice [5]): promising modRNA expression

CCCCCCCCCC(=O)OC1C(OC(=O)CCCCCCCCC)[C@H](OC(=O)CCCCCCCCC)C(CSCCNC(=S)NCCn2ccnc2)O[C@@H]1O[C@H]1OC(CSCCNC(=S)NCCn2ccnc2)[C@@H](OC(=O)CCCCCCCCC)C(OC(=O)CCCCCCCCC)C1OC(=O)CCCCCCCCC (stereo partly drawn) [JLF110]
Level of secretion of pro-inflammatory cytokines, IL-6, TNF-α, IL-1β and IFN-γ (hPBMCs): medium levels of secretion

CCCCCCCCCC(=O)OC1C(OC(=O)CCCCCCCCC)[C@H](OC(=O)CCCCCCCCC)C(CSCCNC(=S)NCCN(C)C)O[C@@H]1O[C@H]1OC(CSCCNC(=S)NCCN(C)C)[C@@H](OC(=O)CCCCCCCCC)C(OC(=O)CCCCCCCCC)C1OC(=O)CCCCCCCCC (stereo partly drawn) [JLF41]
Difference in particle size between N/P 1 and N/P 6 ([4]; modRNA (FIG. 6A)): greater difference in particle size
